# Reference: patent US20230321063A1, “COMPOSITIONS AND METHODS TO REDUCE NEUROINFLAMMATION” (Seattle Children's Hospital d/b/a Seattle Children's …, priority 2020, published 2023)
# Entries after “also recorded” stand apart in the source; their conditions may differ.
# Experiments:
# Type in all cases: in vivo, mouse
# [1] = system: Ndufs4(KO) mice; experiment: Rotarod assay; details: latency to fall up to 10 min, 6 rpm
# Experimental: Rotarod and rotarod seizures. Rotarod assays were performed using a Med Associates Inc. (Fairfax, VT) ENV-571M single lane rotarod with a black mat installed in the floor of the lane to reduce visibility of the bottom. Assays were performed by placing animals onto an already rotating rod and timing latency to fall, with a steady rotation speed set to 6 rpm (controlled by attached laptop and Med Associates software). The maximum time of each trial was 10 min, with the trial ending at that time if mice were still on the rotarod. For each assay, three trials were performed, with a minimum of 5 min between each assay. The best of the three trials was reported for the rotarod data. As detailed in the text and figure legends, rotarod was performed each 10 days of age from P30; mice in a given age group were the reported age +/−1 day.
# [2] = system: CNS lesions in Ndufs4(KO) mice; experiment: Brain immunological staining: brainstem and cerebellar CNS lesions; details: 300 mg/kg/day
# Experimental: (§1) Brain immunological staining and microscopy. Brains were fixed for 48 hours in 10% formalin at 4° C. Following fixation, brains were moved to a cryoprotectant solution (30% sucrose, 1% DMSO, 100 μM glycine, 1×PBS, 0.45 μm filtered, pH 7.5), and stored for over 48 hours, until the fixed tissues sank to the bottom. Tissues were then placed in OCT media (Tissue-Tek OCT compound, Sakura 0004348-01), frozen in cryoblock holders on dry ice, and stored at −80° C. until sectioned for staining. Cryoblocks were cut at 50 μm thickness using a Leica CM30505 cryostat set at −40° C. Slices were moved to 1×PBS and stored at 4° C. until used for staining. Prior to staining, slices were mounted on slides and briefly dried to adhere.
# (§2) Antibody staining was performed as follows: slides were first incubated in an antigen retrieval and permeabilization buffer (0.05% Triton X-100, 50 μM digitonin, 10 mM Tris-HCl, 1 mM EDTA, pH 9.0) at 60° C. overnight in a white-light LED illuminated box (to promote photobleaching of tissue autofluorescence). To reduce formaldehyde induced background fluorescence, slides were treated with sodium borohydride in ice cold PBS, added at 1 mg/mL immediately before incubation, on ice for 30 min, then moved to 10 mM glycine 1×PBS, pH 7.4, for 5 min at room temperature. Lipid background fluorescence was then blocked by incubating slides in 0.2 μm filtered Sudan Black B solution (5 mg/mL in 70% ethanol) overnight at room temperature. Slides were then rinsed twice, 5 min each, in 1×PBS. Excess fluid was wiped from the slide, and the tissue was circled using Liquid Blocker PAP pen (Fisher Scientific, NC9827128) to hold staining solutions. Slides were blocked for 15 min at room temperature in 1×PBS with 10% rabbit serum (Gibco, 16120-099) then stained overnight at 4° C. in a mixture of rabbit anti-IBA1-fluorochrome 635 conjugated (WAKO 013-26471) at 1:300, mouse anti-GFAP, Alexa555 conjugated (Cell Signaling, 3656S) at 1:300, and DAPI (Sigma, D9542) at 1 μg/mL. […]
# [3] = system: non-lesion CNS tissue in Ndufs4(KO) mice; experiment: Brain immunological staining: microglia and astrocytes in cortex and brainstem outside of overt lesions; details: 300 mg/kg/day
# Experimental: as §1, §2
# [4] = system: control and Ndufs4(KO) mice; experiment: Glucose tolerance test (GTT) and glucose induced lactate test; details: 2 g/kg glucose IP; pexidartinib 300 mg/kg/d in chow, IPI-549 100 mg/kg/d in chow, rapamycin (ABI-009) 8 mg/kg/d IP
# Excerpt: Point-of-care glucose and lactate testing. Blood glucose and lactate measurements were collected using point-of-care meters (Prodigy Autocode® glucose meter, product #51850-3466188, Prodigy® Diabetes Care, LLC, Charlotte, NC; lactate assay meter, product #40828, Nova Biomedical, Waltham, MA) and the tail-prick method, as previously described (Stokes et al. Elife 2021; 10:e65400).
# Glucose tolerance test (GTT) and glucose induced lactate test. Prior to performing the GTT, mice were fasted for 4 hours, from 10 AM-2 PM. The fasting duration was limited to 4 hours given the sensitivity of untreated Ndufs4(KO) animals to hypoglycemia and related sequelae (dysregulation of body temperature, hypoglycemia induced seizure, etc.). For the ABI-009 cohort, mice received their daily ABI-009 treatment at the start of this fasting period. At the end of the 4 hour fast, baseline blood glucose and lactate values were collecting using point-of-care meters and the tail-prick method. Mice were then injected by IP with 2 g/kg dextrose (10 microliters/gram body weight of 200 mg/mL glucose in 1×PBS, 0.2 micron sterile filtered) using an insulin syringe (31-gauge, 6 mm length, 3/10 cc, BD Veo Ultra-Fine needle). Glucose and lactate levels were measured using a minimally invasive tail-prick method at designated timepoints post-injection.
compound,measurement,setting,value
"FC(F)(F)c1ccc(CNc2ccc(Cc3c[nH]c4ncc(Cl)cc34)cn2)cn1 [pexidartinib, 5-[(5-chloro-1H-pyrrolo[2,3-b]pyridin-3-yl)methyl]-N-[[6-(trifluoromethyl)pyridin-3-yl]methyl]pyridin-2-amine]",performance on rotarod assay,[1],rescued performance; also recorded: dose-dependent effect
same,gliosis (microgliosis and astrocytosis) at CNS lesion sites,[2],completely prevented
same,brainstem CNS lesions,[2]; immunohistochemistry,complete (as detected by immunohistochemistry) prevention
same,cerebellar CNS lesions,[2]; immunohistochemistry,complete (as detected by immunohistochemistry) prevention
same,astrocyte numbers in non-lesion CNS tissue,[3],rescued to control levels
same,microglia numbers in non-lesion CNS tissue,[3]; beyond that of untreated control animals,near complete depletion of microglia
same,astrocytosis and microgliosis in non-lesion CNS tissue,[3]; cortex and brainstem outside overt lesions,prevented both forms of gliosis
same,blood lactate spike in response to a glucose bolus,[4],prevented this spike in blood lactate
